Assay results from patent US9701628B2, “12-epi pleuromutilins” (NABRIVA THERAPEUTICS AG, priority 2014, dated 2017).
≈ marks a conversion by molar mass, not a printed value. Counter-ions that a name gives are not always drawn. Like-named read-outs stand apart in the source and are kept apart here.

How the values were obtained:
[1] = test system: Staphylococcus aureus ATCC 49951; test: MIC by broth microdilution (CLSI) against Staphylococcus aureus ATCC 49951; type: cell-based; details: Staphylococcus aureus ATCC 49951, in vitro
Experimental: (§1) The in vitro activity against aerobic bacteria was determined by Broth Microdilution Test according to the Clinical and Laboratory Standards Institute (CLSI, former NCCLS) Document M7-A9 Vol 32, No 2 “Methods for Dilution Antimicrobial Susceptibility Tests for Bacteria that Grow Aerobically; Approved Standard—Ninth Edition (2012)”; and the test against anaerobic bacteria was performed by Agar Dilution Test according to the Clinical and Laboratory Standards Institute (CLSI, former NCCLS), Document, M11-A8, Vol. 32, No. 5: “Methods for Antimicrobial Susceptibility Testing of Anaerobic Bacteria; Approved Standard—Eighth Edition (2012)”. Performance standards and interpretive criteria followed the CLSI Document, M100-S23: “Performance Standards for Antimicrobial Susceptibility Testing; Twenty-Third Informational Supplement” (2013). The in vivo activity was tested by the septicaemia mouse model against Staphylococcus aureus and Escherichia coli.
(§2) The antibacterial activity expressed as minimal inhibitory concentration (MIC) was determined according to the approved standard reference recommendations of CLSI (former NCCLS) as described in the description of the application.

[2] = test system: Escherichia coli ATCC25922; test: MIC by broth microdilution (CLSI) against Escherichia coli ATCC 25922; type: cell-based; details: Escherichia coli ATCC25922, in vitro
Experimental: as §1, §2

| SMILES | MIC [1] | MIC [2] [µg/mL] | MIC ([1]; ATCC49951, read-out: MIC) [µg/mL] | MIC ([2]; read-out: MIC) [µg/mL] |
| --- | --- | --- | --- | --- |
| C=CC1(C)CC(OC(=O)CSc2ccc(CC(=O)NCC(C)N)cc2)C2(C)C(C)CCC3(CCC(=O)C32)C(C)C1O.Cl (stereo not shown) [Example C2, 14-O-{{4-[(2-Amino-propylcarbamoyl)-methyl]-phenylsulfanyl}-acetyl} mutilin hydrochloride, reference compound] | ≦0.03 μg/mL | 32 |  |  |
| C[C@@H]1CC[C@@]23CCC(=O)[C@H]2[C@]1(C)[C@H](OC(=O)CSc1ccc(CN)cn1)C[C@](C)(CNCc1ccc(CN)c(F)c1)[C@@H](O)[C@@H]3C [Example 99, 12-epi-12-Desvinyl-14-O-{[5-aminomethyl-pyridin-2-yl-sulfanyl)]-acetyl}-12-[(4-aminomethyl-3-fluoro-benzylamino)-methyl] mutilin tetrahydrochloride] |  |  | 0.25 | 0.5 |
| C[C@@H]1CC[C@@]23CCC(=O)[C@H]2[C@]1(C)[C@H](OC(=O)CSC1CCN(C(=O)CN)CC1)C[C@](C)(CNCc1ccc(OCCN)cc1)[C@@H](O)[C@@H]3C [Example 83, 12-epi-12-desvinyl-14-O-{[1-(2-Amino-acetyl)-piperidin-4-yl-sulfanyl]-acetyl}-12{2-[4-(2-amino-ethoxy)-benzylamino]-methyl} mutilin trihydrochloride] |  |  | 0.25 | 1 |
| CC1C(O)C(C)(CNCCCCCCNC(=N)N)CC(OC(=O)CSc2ccc(CC(=O)NCCCN)cc2)C2(C)C(C)CCC13CCC(=O)C32.Cl.Cl.Cl (stereo not drawn) [Example 11, 12-epi-12-desvinyl-14-O-{{4-[(3-Amino-propylcarbamoyl)-methyl]-phenylsulfanyl}-acetyl}-12-[(6-guanidino-hexylamino)-methyl] mutilin trihydrochloride] | ≦0.03 μg/mL | 0.25 |  |  |
| C=C[C@]1(C)C[C@@H](OC(=O)CSCCN(CC)CC)[C@]2(C)[C@H](C)CC[C@]3(CCC(=O)[C@H]32)[C@@H](C)[C@@H]1O [Tiamulin, tiamulin, reference compound] |  |  | 0.5 (≈ 1.01 µM) | > 32 |
| C=C[C@]1(C)C[C@@H](OC(=O)CSC(C)(C)CNC(=O)[C@H](N)C(C)C)[C@]2(C)[C@H](C)CC[C@]3(CCC(=O)[C@H]32)[C@@H](C)[C@@H]1O [Econor, econor, reference compound] | ≦0.03 μg/mL | 32 (≈ 56.7 µM) |  |  |
| C[C@@H]1CC[C@@]23CCC(=O)[C@H]2[C@]1(C)[C@H](OC(=O)CS[C@@H]1CC[C@@H](N)C[C@H]1O)C[C@](C)(CNCCCN)[C@@H](O)[C@@H]3C.Cl.Cl.Cl [Example 62, 12-epi-12-desvinyl-14-O-{[(1R,2R,4R)-4-Amino-2-hydroxy-cyclohexylsulfanyl]-acetyl}-12-[(3-amino-propylamino)-methyl] mutilin trihydrochloride] | 0.25 µg/mL | 4 |  |  |

Other lines, results leading:

| MIC [1] | MIC [2] [µg/mL] | MIC ([1]; ATCC49951, read-out: MIC) [µg/mL] | MIC ([2]; read-out: MIC) [µg/mL] | SMILES |
| --- | --- | --- | --- | --- |
| 0.5 µg/mL | 4 |  |  | C[C@@H]1CC[C@@]23CCC(=O)[C@H]2[C@]1(C)[C@H](OC(=O)CSc1nnc(N)[nH]1)C[C@](C)(CNCCCCCCN)[C@@H](O)[C@@H]3C.Cl.Cl.Cl [Example 66, 12-epi-12-desvinyl-14-O-{[(5-Amino-4H-1,2,4-triazol-3-yl)-sulfanyl]-acetyl}-12-[(6-amino-hexylamino)-methyl] mutilin trihydrochloride] |
|  |  | ≤ 0.03 | 0.5 | C[C@@H]1CC[C@@]23CCC(=O)[C@H]2[C@]1(C)[C@H](OC(=O)CSc1ccc(CC(=O)NCCCN)cc1)C[C@](C)(CCNCCCN)[C@@H](O)[C@@H]3C [Example 52, 12-epi-12-desvinyl-14-O-{{4-[(3-Amino-propylcarbamoyl)-methyl]-phenylsulfanyl}-acetyl}-12-[2-(3-amino-propylamino)-ethyl] mutilin trihydrochloride] |
| 0.25 µg/mL | 4 |  |  | CC1C(O)C(C)(CNCCCCCCN)CC(OC(=O)CSc2ccncc2)C2(C)C(C)CCC13CCC(=O)C32.Cl.Cl.Cl (stereo not drawn) [Example 68, 12-epi-12-desvinyl-14-O-[(Pyridin-4-ylsulfanyl)-acetyl]-12-[(6-amino-hexylamino)-methyl] mutilin trihydrochloride] |
| 0.5 µg/mL | 2 |  |  | CC1C(O)C(C)(CNCc2ccc(CN)cc2)CC(OC(=O)CSCCN)C2(C)C(C)CCC13CCC(=O)C32.Cl.Cl.Cl (stereo not drawn) [Example 65, 12-epi-12-desvinyl-14-O-[(2-Amino-ethylsulfanyl)-acetyl]-12-[(4-aminomethyl-benzylamino)-methyl] mutilin trihydrochloride] |
